Results published in patent US20260364047A1, “METHODS OF SWITCHING NEUROPSYCHIATRIC MEDICATIONS USING ULOTARONT” (Sumitomo Pharma America, Inc., priority 2022, published 2026).
Entries after “also recorded” stand apart in the source; their conditions may differ.

Assays:
[1] = Daily food intake of rats previously treated with olanzapine; details: 3 mg/kg/day po
[2] = Changes in body weights of rats previously treated with olanzapine
[3] = Liver triglycerides of rats previously treated with olanzapine; details: 3 mg/kg po; prior olanzapine 3 mg/kg po
[4] = Week 1 (Day 1-8), 3 mg/kg po, high-fat diet
[5] = Week 2 (Day 8-14), 3 mg/kg po, prior olanzapine 3 mg/kg po

With `Cc1cc2c(s1)Nc1ccccc1N=C2N1CCN(C)CC1` [Olanzapine, olanzapine] the “Food intake compared to vehicle treated rats (in words)” value [1] was “significantly increased”, the “Increase in body weight, previously shown in-house” value ([2]; 3 mg/kg po, this model, earlier in-house experiments) was 4-6% and the “Body weight compared to vehicle treated rats (in words)” value ([2]; 3 mg/kg/day po) was “An increase in body weight; also recorded: significantly increased body weight”. The “Time to initial effects on body weight and food intake” value ([2]; 3 mg/kg/day po, as early as, following dosing) was 2 to 3 days, the “Changes in body weights, Difference vs Vehicle (A)” value [2, 4] was 13.07 g and the “Changes in body weights, Mean” value [2, 4] was 25.48 g. The “Changes in body weights, Difference vs Vehicle (A)” value [2, 5] was 7.55 g, the “Changes in body weights, Mean” value [2, 5] was 16.70 g and the “Liver triglycerides (μmol total), % vs Vehicle (A)” value [3] was 100.4%. For the same compound, the “Liver triglycerides (μmol/g), % vs Vehicle (A)” value [3] was 100.0%, the “Liver triglycerides total, Mean” value [3] was 348 μmol total and the “Liver triglycerides, Mean” value [3] was 37.1 µmol/g.
